According to ChEMBL document CHEMBL4041528, “Natural NO inhibitors from the leaves of Callicarpa kwangtungensis: Structures, activities, and interactions with iNOS” (Bioorg Med Chem Lett, 2017):

Assays:
BV-2 [1] = assay: Inhibition of LPS-induced NO production in mouse BV2 cells after 20 hrs by Griess assay; format: functional, cell-based; details: BV-2, 20 h
BV-2 [2] = assay: Cytotoxicity against mouse BV2 cells NO inhibitory IC50 by MTT assay; format: cell-based

Row | SMILES | IC50 (BV-2 [1]) [µM] | Activity (BV-2 [2])
1 | CC(C)[C@]12CC[C@@]34O[C@@]3(CC[C@H]3[C@](C)(C(=O)O)CCC[C@@]34C)[C@H]1O2 | > 81 | Non-Toxic
2 | CC(C)[C@@]12C=C3[C@H](O)C[C@H]4[C@](C)(C(=O)O)CCC[C@]4(C)[C@]3(CC1)OO2 | > 81 | Non-Toxic
3 | C=C1CC[C@H](O)/C(C)=C\C[C@@H]2[C@@H]1CC2(C)C | 13.6 | Non-Toxic
4 | C=C(C)c1ccc2c(c1)CC[C@H]1[C@](C)(C(=O)O)CCC[C@]1(C)O2 | 25.5 | Non-Toxic
5 | CC(C)[C@]12CC[C@]3(OO1)C(=CC[C@H]1[C@](C)(C(=O)O)CCC[C@@]13C)[C@@H]2O | 26.7 | Non-Toxic
6 | C=C(C)c1ccc2c(c1)CC[C@H]1[C@](C)(CO)CCC[C@]21C | 15.3 | Non-Toxic
7 | CO[C@@H]1C[C@H]2[C@](C)(C(=O)O)CCC[C@]2(C)[C@]23CC[C@](C(C)C)(C=C12)OO3 | 23.7 | Non-Toxic
8 | C=C1CC[C@H](O)[C@@]2(C)O[C@H]2C[C@@H]2[C@@H]1CC2(C)C | 42.6 | Non-Toxic
9 | CC1(C)C[C@H](O)[C@]23CC[C@@H](O)[C@](C)(CC[C@@H]12)C3 | 62.2 | Non-Toxic
10 | CC(C)[C@]12C=C3CC[C@H]4[C@](C)(C(=O)O)CCC[C@]4(C)[C@@]3(CC1)OO2 | 34.7 | Non-Toxic
11 | CC(C)[C@@]12C=C3CC[C@H]4[C@](C)(C(=O)O)CCC[C@]4(C)[C@]3(CC1)OO2 | 52.4 | Non-Toxic
12 | CC(C)c1ccc2c(c1)[C@@H](O)C[C@H]1[C@](C)(C(=O)O)CCC[C@]21C | 17.9 | Non-Toxic
13 | CC1(C)C[C@@H]2C(=O)CC[C@H]3O[C@]3(C)CC[C@H]21 [KOBUSONE] | > 81 | Non-Toxic
